# Experimental data reported in paper PMC6934184, “Selective DNA-PKcs inhibition extends the therapeutic index of localized radiotherapy and chemotherapy” (The Journal of Clinical Investigation, 2019).
# Target: T1, MAPK10 (JNK3) (Homo sapiens, UniProt P53779)
# T1 construct: purchased Thermo Fisher Scientific (Life Technologies) SelectScreen
# Experiment: SelectScreen Z'LYTE
# Assay type: biochemical
# Details: ATP 100 µM
# How it was run: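 Percent values come from Thermo SelectScreen profiling of NU5455, combining activity and binding assays. CSF1R was run in Z'LYTE format at Km app ATP, and CAMK1 in Adapta format with ATP listed at 10.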
# T1 sequence (P53779 whole entry): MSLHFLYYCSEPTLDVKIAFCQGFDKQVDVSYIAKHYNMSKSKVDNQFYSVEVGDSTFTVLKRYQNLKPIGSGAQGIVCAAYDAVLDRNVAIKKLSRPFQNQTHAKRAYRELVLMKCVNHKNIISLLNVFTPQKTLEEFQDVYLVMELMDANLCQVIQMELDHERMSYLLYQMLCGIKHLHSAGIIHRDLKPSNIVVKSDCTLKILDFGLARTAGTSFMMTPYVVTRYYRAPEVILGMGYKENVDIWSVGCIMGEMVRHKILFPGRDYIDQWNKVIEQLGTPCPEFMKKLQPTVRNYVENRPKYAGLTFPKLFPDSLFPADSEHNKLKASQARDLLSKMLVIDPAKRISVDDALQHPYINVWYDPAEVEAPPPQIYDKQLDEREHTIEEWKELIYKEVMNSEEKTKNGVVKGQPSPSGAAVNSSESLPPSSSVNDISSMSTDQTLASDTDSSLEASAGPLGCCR
smiles,measurement,value
CN(C(=O)CN1CCOCC1)c1ccc2sc3c(-c4cccc5c(=O)cc(N6CC7CCC(C6)O7)oc45)cccc3c2c1 [NU5455],inhibition at 1 µM,9%
